Experiment: gradient 5% acetonitrile 3 min, to 50% in 2 min, to 85% in 15 min, held 3 min, 100 µL/min
Details: column: Zorbax Extend-C18 2.1 x 50 mm; eluents: water / acetonitrile, 0.1% formic acid
Method in brief: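 A Zorbax Extend-C18 column (2.1 × 50 mm, 1.8 μm) run at 100 μL/min with water and acetonitrile, both containing 0.1% formic acid, separated mixtures of ~100 pure standards. The HPLC was coupled to a quadrupole time-of-flight mass spectrometer operated in positive and negative ionization mode, with dead and dwell volumes of 40 μL and 900 μL. Each retention time was taken from a computationally picked adduct peak that was then manually inspected.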

Structure (SMILES)	RP-LC retention time [s]
CCOc1ccc(NC(=O)C2CCN(S(=O)(=O)c3c(C)nn(-c4ccccc4)c3C)CC2)cc1	963
O=C(NCCc1ccccc1)C1=Cc2ccccc2OC=C1	1010
O=C(NCCc1ccc(N2CCCC2)cc1)C(=O)Nc1ccc2c(c1)OCCO2	844
O=C(c1ccco1)N1CCCC(c2cc(-c3ccc(F)cc3)n[nH]2)C1 (stereo not drawn)	674
CCc1nc2cc(-c3noc(-c4n[nH]c5c4CCCC5)n3)ccc2o1	1000
Cc1ccc(-c2nc3nc(C)c(CC(=O)NC(C)C)c(C)n3n2)cc1	761
CCCN1C(=O)COc2ccc(-c3noc(-c4ccccc4Cl)n3)cc21	1240
COc1ccccc1NC(=O)N1CCC(CNC(=O)c2ccccc2C(F)(F)F)CC1	763
CCCN(C(=O)c1ccccc1F)c1nc(-c2ccc(C)cc2)cs1	1410
CC(C)N1CCn2cc(S(=O)(=O)Nc3ccc(F)cc3F)cc2C1=O	759
O=C(NCc1cccc(Cl)c1)C1CC(=O)N(c2n[nH]c3cccc(F)c23)C1 (stereo not drawn)	749
COc1cc(C)c(C)cc1S(=O)(=O)N1CCN(c2ccc(-c3cccnc3)nn2)CC1	649
CCCNc1cc(N2CCC(CCC(=O)O)CC2)ncn1	600
O=C(NC1CCN(Cc2ccccc2)CC1)C1CCCN(c2cnc3nccnc3c2)C1 (stereo not drawn)	907
O=C(N[C@H]1C[C@@H]2C[C@H]1CN2C(=O)c1ccc(OC(F)(F)F)cc1)c1cccs1	842
O=C(Cc1nnc(-c2ccc3ncccc3c2)o1)NCCc1ccc(Cl)cc1	733
Cc1cc(NC(=O)N2CCC(c3cc(N)on3)CC2)ccc1Br	790
CCc1nc2cc3c(cc2n1CC(=O)Nc1ccc(Br)cc1)OCCO3	707
Fc1ccc(F)c(-c2nc(-c3ccc4nncn4c3)no2)c1	801
COc1ccc(-c2cc(C(=O)N3CCN(c4c(C)n(C)c(=O)n(C)c4=O)CC3)c3ccccc3n2)cc1	806
CC1CCN(CCCNS(=O)(=O)c2ccccc2-c2nc(-c3ccccc3)no2)CC1	733
CCn1cc2c3c(cccc31)CN(C(=O)Nc1cccc(Cl)c1F)CC2	1060

Structure (SMILES)	RP-LC retention time [s]
O=C(C1COc2ccccc2O1)N1CCCN(C2CCN(CC3CC3)C2=O)CC1 (stereo not drawn)	560
CC(C)NC(=O)C1CCN(c2cnn(Cc3ccccc3)c(=O)c2)CC1	689
O=C(c1ccccc1)N1CCc2cc(-c3ccno3)ccc21	886
Cc1onc(-c2ccccc2)c1C(=O)Nc1nc(-c2ccc(F)cc2)cs1	1090
Cc1ccc(CNC(=O)C2(C)CCCN(C(=O)Nc3cccc(Cl)c3C)C2)cc1 (stereo not drawn)	1060
CCc1nccn1Cc1noc(-c2ccc(Cl)cc2)n1	668
COc1ccc(CNC(=O)C2=C3CCCN3c3ccc(F)cc3S2(=O)=O)cc1OC	764
CCOC(=O)c1[nH]c(C)c(CCC(=O)N2CCC(C(=O)NCc3ccccc3Cl)CC2)c1C	808
CCCCNC(=O)C1CCN(C(=O)Nc2ccc(NC(=O)NC3CCCC3)cc2)CC1	684
CC(=O)N1CCc2cc(N3CC(C(=O)Nc4ccccc4Br)CC3=O)ccc21 (stereo not drawn)	699
O=C(Cn1nc2c(Oc3ccccc3)nccn2c1=O)Nc1ccc(F)cc1Cl	796
CCc1ccccc1NC(=O)CSc1nnc2ccc(C(=O)Nc3cccc(F)c3)cn12	776
Cc1ccc2c(c1)N(C(=O)Cn1c(=O)c(CCC(=O)NCC(C)C)nc3ccccc31)CCO2	884
Cc1ccnc(N2CCCC(C(=O)NCc3ccc(C)o3)C2)n1 (stereo not drawn)	694
CCN1C(=O)c2ccccc2Oc2ccc(C(=O)NCCc3ccccc3)cc21	845
O=C(Cn1cnc(-c2nc(-c3ccccc3)cs2)c1)Nc1ccc(F)cc1F	744
COc1cccc(-c2ccnc3nc(Cc4cc(F)cc(F)c4)nn23)c1	945
Cc1nn(CCCC(=O)NCCCN2CCCCC2)c(=O)c2c1sc1ccccc12	645
O=C(CCc1cc2ccccc2[nH]c1=O)N1CCN(c2ncccn2)CC1	645
O=C(Nc1cccnc1)C1CCN(S(=O)(=O)c2cccnc2)CC1	591
Cc1cc(C(=O)NCc2ccccn2)c2cc(Br)ccc2n1	591
O=C(NCCN1CCOCC1)c1ccc(-c2ccc(N3CCCCC3)nc2)cc1	557

Structure (SMILES)	RP-LC retention time [s]
Cc1ccc(C(=O)N2CCc3cn(C)c4cccc(c34)C2)cc1F	997
CS(=O)(=O)c1nc2ccc(NS(=O)(=O)c3ccc(Br)s3)cc2s1	888
CCC(=O)N1CCc2cc(N3CC(C(=O)Nc4ccc(OC)c(F)c4)CC3=O)ccc21 (stereo not drawn)	738
COC(=O)C1=C(NC(=O)c2cccc(F)c2)CCS1	964
Cc1ccc(-n2nc(C)c3c(C)c(CCC(=O)NCCc4c[nH]c5ccccc45)c(C)nc32)cc1C	1150
CCCCCn1c(CN(C)C(=O)c2ccco2)nc2ccccc21	700
CC(C)(C)NC(=O)Cc1cccn1-c1ccc(F)cc1	925
CCC(=O)NCc1nc2c(n1CC)CN(C(=O)c1ccc(C(F)(F)F)cc1)CC2	614
CC(C)c1noc(-c2cc(=O)n(CC(=O)Nc3ccc4c(c3)OCCO4)c3ccccc23)n1	941
CCc1ccc2[nH]c3c(c(=O)c2c1)CN(CC(=O)NC1CCCCC1)CC3	630
COc1ccc(C2Nc3ccccc3NC3=C2C(=O)CC(c2cccs2)C3)cc1OC (stereo not drawn)	730
CC1=C(c2ccc(C)cc2)S(=O)(=O)N=C1N1CCCN(C(=O)CCC(C)C)CC1	888
COc1ccc(CCS(=O)(=O)Nc2ccc3c(c2)N(C(=O)C2CCCO2)CC3)cc1 (stereo not drawn)	762
Cn1nc(C(=O)N2CCN(c3cc(-c4ccccc4)[nH]n3)CC2)c2ccccc21	805
CC(C)N1CCn2cc(S(=O)(=O)NCc3ccccc3Cl)cc2C1=O	769
CC1CCN(c2cc3c(cc2NC(=O)c2ccco2)n(C)c(=O)c(=O)n3C)CC1	632
Cc1cccc(CN2CCCn3nc(C(=O)NC4CCCC4)cc3C2=O)c1	879
Cc1cnc(-c2ccccc2)n1CCNS(=O)(=O)c1ccc(C#N)cc1	634
COCCOC(=O)C1=C(C)NC2=C(C(=O)C(C(=O)OC)C(C)C2)C1c1ccccc1F (stereo not drawn)	806
CSc1ccc(CNC(=O)c2ccc3c(c2)NC(=O)C2CCCCN32)cc1 (stereo not drawn)	850
CCCCC(=O)O[C@]1(C(=O)CO)CC[C@H]2[C@@H]3CCC4=CC(=O)CC[C@]4(C)[C@H]3[C@@H](O)C[C@@]21C	1020
COCCNc1c(-c2cccc(OC)c2)nc2sc(C(=O)N(C)C)c(C)n12	698

Structure (SMILES)	RP-LC retention time [s]
CCCCNC(=O)C1CCN(C(=O)Nc2ccc(NC(=O)NC3CCCCC3)cc2)CC1	732
CC(=O)N1CCc2cc(-c3ccc(C(=O)NCc4ccc5c(c4)OCO5)cc3)ccc21	824
COC(=O)C(Cc1ccccc1)NC(=O)Nc1cccn2c(C)nnc12 (stereo not drawn)	685
O=C1CCC2(CNC(=O)c3n[nH]c(=O)c4ccccc34)CCCC=C2N1 (stereo not drawn)	634
COc1cc(NC(=O)C2CCN(c3c(C(=O)N4CCC(C)CC4)cnc4snc(C)c34)CC2)cc(OC)c1	1010
O=C(Nc1ccc(F)cc1)C1CCN(C(=O)C2Sc3ccccc3NC2=O)CC1 (stereo not drawn)	746
COC(=O)c1ccc2c(=O)n(-c3cc(OC)cc(OC)c3)c(N3CCSCC3)nc2c1	983
COC(=O)C1=CN(c2cccc(C#N)c2)c2ccccc2S1(=O)=O	754
Cn1c(N2CCC(C(=O)N3CCN(Cc4ccc5c(c4)OCO5)CC3)CC2)cc(=O)n(C)c1=O	579
Cc1cc(OCC(=O)NCc2ccc3c(c2)OCO3)nc(N2CCCC(C)C2)n1 (stereo not drawn)	671
CC(=O)N1CCc2cc(CNS(=O)(=O)Cc3ccccc3)ccc21	750
CCCNC(=O)C1CCN(Cc2cc3ccccc3n2Cc2ccc(Cl)cc2)CC1	768
CC(=O)Nc1ccc(S(=O)(=O)N2CCCn3nc(-c4cccc(Cl)c4)cc3C2)cc1	910
Cc1nc(C)c(C(=O)NC2CCN(c3ccc(=O)n(CCOc4ccccc4)n3)C2)s1 (stereo not drawn)	703
CN(C(=O)C(=O)Nc1ccc2nc3n(c(=O)c2c1)CCCCC3)c1ccccc1F	746
O=C(Nc1nccs1)C1CCN(S(=O)(=O)c2cc(C(=O)N3CCOCC3)cs2)CC1	680
COc1ccccc1OCCNC(=O)COc1ccc(NC(=O)C2CC2)cn1	708
CCN1c2ccccc2C(=O)NC12CCN(C(=O)NCc1ccc(C)cc1)CC2	796
O=C(C1=CN(c2ccc(F)cc2)c2cc(F)ccc2S1(=O)=O)N1CCCC1	748
Cc1cnc(CC2CCN(C(=O)C(C)C)C2)n1C(C)C (stereo not drawn)	578
Cc1cc(C)n2c(C)nnc2c1	570
Cc1ccc(-c2cc3c(=O)n(Cc4noc(CN5CCOCC5)n4)ccn3n2)c(C)c1	792

From the METLIN SMRT retention time set (Domingo-Almenara et al. 2019)
